From EPA's ToxRefDB 2

Key:
rat [1] = details: Chronic toxicity, wistar, Oral, Feed, dose end: 728 day, group: systemic
rat [2] = details: Subchronic oral toxicity in rodents, wistar, Feed, dose end: 3 month, group: systemic, systemic / clinical chemistry / albumin / albumin + systemic / clinical chemistry / calcium / calcium + systemic / clinical chemistry / …
rat [3] = details: Developmental neurotoxicity range-finding study; wistar; Oral; Gavage/Intubation; dose end: 21 PND; group: cannot be grouped; developmental / offspring survival late / [other] / [other] + systemic / in life observation / clinical signs / tremors
rat [4] = details: Combined chronic toxicity/carcinogenicity, sprague dawley, Oral, Feed, dose end: 104 week, group: systemic
dog [5] = details: Chronic toxicity, beagle, Oral, Feed, dose end: 52 week, group: systemic
rabbit = details: Prenatal developmental toxicity study, himalayan, Oral, Gavage/Intubation, dose end: 19 GD
rat [6] = details: Combined chronic toxicity/carcinogenicity; wistar; Oral; Feed; dose end: 24 month; group: systemic; systemic / in life observation / body weight / body weight + systemic / in life observation / body weight / body weight gain + systemic / in…
dog [7] = details: Chronic toxicity; beagle; Oral; Feed; dose end: 52 week; group: systemic; systemic / pathology microscopic / liver / hemosiderosis + systemic / pathology microscopic / spleen / hemosiderosis
mouse = details: Combined chronic toxicity/carcinogenicity; other; Oral; Feed; dose end: 104 week; group: systemic; systemic / in life observation / body weight / body weight
rat [8] = details: Multigenerational reproductive toxicity study, wistar, Oral, Feed, dose end: 2 generation
[9] = systemic / in life observation / body weight / body weight + systemic / in life observation / body weight / body weight gain + systemic / …
[10] = systemic / in life observation / food consumption / food consumption
[11] = systemic / in life observation / food consumption / food consumption + systemic / in life observation / body weight / body weight
[12] = systemic / in life observation / clinical signs / salivation
[13] = systemic / in life observation / clinical signs / salivation + systemic / in life observation / clinical signs / [other] + systemic / in …
[14] = group: developmental, developmental / developmental malformation / bone / [other] + developmental / developmental malformation / bone / full supernumerary + …
[15] = group: maternal, systemic / in life observation / body weight / body weight gain + systemic / in life observation / food consumption / food consumption
[16] = group: offspring, developmental / developmental landmark / eye opening / eye opening
[17] = group: offspring, systemic / in life observation / body weight / offspring (pup) weight + systemic / in life observation / body weight / offspring (pup) …
[18] = group: parental, systemic / in life observation / body weight / body weight + systemic / in life observation / body weight / body weight gain + systemic / …

C[N+]1(C)CCCCC1.[Cl-] [Mepiquat chloride]
LOAEL (rat [1]; [9]): 268 mg/kg/day | NEL (rat [1]; [9]): 13 mg/kg/day | NOAEL (rat [1]; [9]): 106 mg/kg/day | LEL (rat [1]; [10]): 106 mg/kg/day | LEL (rat [2]): 826 mg/kg/day | LOAEL (rat [2]): 826 mg/kg/day | NEL (rat [2]): < 826 mg/kg/day | NOAEL (rat [2]): < 826 mg/kg/day | LEL (rat [3]): 75 mg/kg/day | LOAEL (rat [3]): 75 mg/kg/day | NEL (rat [3]): < 75 mg/kg/day | NOAEL (rat [3]): < 75 mg/kg/day | LEL (rat [4]; [10]): 186 mg/kg/day | LOAEL (rat [4]; [10]): 186 mg/kg/day | NEL (rat [4]; [11]): 62.4 mg/kg/day | NOAEL (rat [4]; [11]): 62.4 mg/kg/day | LOAEL (dog [5]; [12]): 170 mg/kg/day | NOAEL (dog [5]; [12]): < 170 mg/kg/day | LEL (dog [5]; [13]): 170 mg/kg/day | NEL (dog [5]; [13]): < 170 mg/kg/day | LEL (rabbit; [14]): 100 mg/kg/day | LOAEL (rabbit; [14]): 100 mg/kg/day | NEL (rabbit; [14]): 50 mg/kg/day | NOAEL (rabbit; [14]): 50 mg/kg/day | LEL (rabbit; [15]): 100 mg/kg/day | LOAEL (rabbit; [15]): 100 mg/kg/day | NEL (rabbit; [15]): 50 mg/kg/day | NOAEL (rabbit; [15]): 50 mg/kg/day | LEL (rat [6]): 269 mg/kg/day | LOAEL (rat [6]): 269 mg/kg/day | NEL (rat [6]): 105 mg/kg/day | NOAEL (rat [6]): 105 mg/kg/day | LEL (dog [7]): 58.4 mg/kg/day | LOAEL (dog [7]): > 58.4 mg/kg/day | NEL (dog [7]): 19.9 mg/kg/day | NOAEL (dog [7]): ≥ 58.4 mg/kg/day | LEL (mouse): 169 mg/kg/day | LOAEL (mouse): > 514 mg/kg/day | NEL (mouse): 48.9 mg/kg/day | NOAEL (mouse): ≥ 514 mg/kg/day | LEL (rat [8]; [16]): 48.6 mg/kg/day | NEL (rat [8]; [16]): < 48.6 mg/kg/day | LOAEL (rat [8]; [17]): 574 mg/kg/day | NOAEL (rat [8]; [17]): 147 mg/kg/day | LOAEL (rat [8]; group: parental, systemic / in life observation / body weight / body weight + systemic / in life observation / body weight / body weight gain): 499 mg/kg/day | LEL (rat [8]; [18]): 499 mg/kg/day | NEL (rat [8]; [18]): 153 mg/kg/day | NOAEL (rat [8]; [18]): 153 mg/kg/day
